Laboratory results from patent US5436254A, “Carbostyril derivatives” (Otsuka Pharmaceutical Company, Ltd., priority 1989, dated 1995).
Read-outs that look alike come from different tables or passages of the source.

Target: V1 receptor (Rattus norvegicus, UniProt P30560)
Assay: biochemical
Assay type: binding
[1] = [H]3-Arg-vasopressin 2×10^-10 M, rat liver plasma membrane, 37° C., 10 minutes, pH 8.0, read-out: IC50

V1 receptor, sequence (P30560 whole entry): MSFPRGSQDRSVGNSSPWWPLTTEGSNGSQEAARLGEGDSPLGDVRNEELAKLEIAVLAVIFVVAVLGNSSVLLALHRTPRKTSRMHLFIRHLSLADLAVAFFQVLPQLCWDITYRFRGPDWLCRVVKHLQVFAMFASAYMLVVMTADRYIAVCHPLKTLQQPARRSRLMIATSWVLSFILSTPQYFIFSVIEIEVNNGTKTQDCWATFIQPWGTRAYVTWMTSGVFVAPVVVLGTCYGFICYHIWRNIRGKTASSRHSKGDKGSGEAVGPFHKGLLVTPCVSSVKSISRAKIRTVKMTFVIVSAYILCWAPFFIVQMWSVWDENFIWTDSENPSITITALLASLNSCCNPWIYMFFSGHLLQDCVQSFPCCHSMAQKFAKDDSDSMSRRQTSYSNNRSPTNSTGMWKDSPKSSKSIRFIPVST

Compound	IC50 [1] [nM]	IC50 [nM]
1-[1-(4-Propargylbenzoyl)-4-piperidinyl]-3,4-dihydrocarbostyril [Example 96]	600	–
1-{1-[4-(6-(1-Methyl-5-oxo-3-morpholino)hexyloxy)benzoyl]-4-piperidinyl}-3,4-dihydrocarbostyril [Example 215]	170	–
1-{1-[4-[4-(Benzimidazol-1-yl)thiobutoxy]benzoyl]-4-piperidinyl}-3,4-dihydrocarbostyril [Example 164]	780	–
NC(=O)CCCCOc1ccc(C(=O)N2CCC(N3C(=O)CCc4ccccc43)CC2)cc1 [Example 3, 1-{1-[4-(4-Carbamoylbutoxy)benzoyl]-4-piperidinyl}-3,4-dihydrocarbostyril]	–	330
NC(=O)CNC(=O)CCCCOc1ccc(C(=O)N2CCC(N3C(=O)CCc4ccccc43)CC2)cc1 [Example 4, 1-{1-[4-(4-Carbamoylmethylaminocarbonylbutoxy)benzoyl]-4-piperidinyl}-3,4-dihydrocarbostyril]	–	240
N#CCCCOc1ccc(C(=O)N2CCC(N3C(=O)CCc4ccccc43)CC2)cc1 [Example 5, 1-{1-[4-(3-Cyanopropoxy)benzoyl]-4-piperidinyl}-3,4-dihydrocarbostyril]	–	490
N=C(N)CCCOc1ccc(C(=O)N2CCC(N3C(=O)CCc4ccccc43)CC2)cc1 [Example 6, 1-{1-[4-(3-Amidinopropoxy)benzoyl]-4-piperidinyl}-3,4-dihydrocarbostyril]	–	470
NC(=O)CCCOc1ccc(C(=O)N2CCC(N3C(=O)CCc4ccccc43)CC2)cc1 [Example 7, 1-{1-[4-(3-Carbamoylpropoxy)benzoyl]-4-piperidinyl}-3,4-dihydrocarbostyril]	–	310
CCOC(=O)CNC(=O)CCCOc1ccc(C(=O)N2CCC(N3C(=O)CCc4ccccc43)CC2)cc1 [Example 8, 1-{1-[4-(3-Ethoxycarbonylmethylaminocarbonylpropoxy)benzoyl]-4-piperidinyl}-3,4-dihydrocarbostyril]	–	300
NC(=O)CNC(=O)CCCOc1ccc(C(=O)N2CCC(N3C(=O)CCc4ccccc43)CC2)cc1 [Example 9, 1-{1-[4-(3-Carbamoylmethylaminocarbonylpropoxy)benzoyl]-4-piperidinyl}-3,4-dihydrocarbostyril]	–	350
COC(=O)[C@H](CO)NC(=O)CCCOc1ccc(C(=O)N2CCC(N3C(=O)CCc4ccccc43)CC2)cc1 [Example 10, Methyl N-[4-{4-[4-(1,2,3,4-tetrahydro-2-oxo-1-quinolyl)-1-piperidinylcarbonyl]phenoxy}]butanoyl-L-serinate]	–	320
COC(=O)[C@H](C)NC(=O)CCCOc1ccc(C(=O)N2CCC(N3C(=O)CCc4ccccc43)CC2)cc1 [Example 11, Methyl N-[4-{4-[4-(1,2,3,4-tetrahydro-2-oxo-1-quinolyl)-1-piperidinylcarbonyl]phenoxy}]butanoyl-L-alanate]	–	300
NC(=O)CCCCCOc1ccc(C(=O)N2CCC(N3C(=O)CCc4ccccc43)CC2)cc1 [Example 12, 1-{1-[4-(5-Carbamoylpentyloxy)benzoyl]-4-piperidinyl}-3,4-dihydrocarbostyril]	–	230
CCOC(=O)CNC(=O)CCCCCOc1ccc(C(=O)N2CCC(N3C(=O)CCc4ccccc43)CC2)cc1 [Example 13, 1-{1-[4-(5-Ethoxycarbonylmethylaminocarbonylpentyloxy)benzoyl]-4-piperidinyl}-3,4-dihydrocarbostyril]	–	280
NC(=O)CNC(=O)CCCCCOc1ccc(C(=O)N2CCC(N3C(=O)CCc4ccccc43)CC2)cc1 [Example 14, 1-{1-[4-(5-Carbamoylmethylaminocarbonylpentyloxy)benzoyl]-4-piperidinyl}-3,4-dihydrocarbostyril]	–	160
NC(=O)CCCCCCCOc1ccc(C(=O)N2CCC(N3C(=O)CCc4ccccc43)CC2)cc1 [Example 15, 1-{1-[4-(7-Carbamoylheptyloxy)benzoyl]-4-piperidinyl}-3,4-dihydrocarbostyril]	–	260
NC(=O)CNC(=O)CCCCCCCOc1ccc(C(=O)N2CCC(N3C(=O)CCc4ccccc43)CC2)cc1 [Example 16, 1-(1-[4-(7-Carbamoylmethylaminocarbonylheptyloxy)benzoyl]-4-piperidinyl}-3,4-dihydrocarbostyril]	–	150
CN(C)CCCOc1ccc(C(=O)N2CCC(N3C(=O)CCc4ccccc43)CC2)cc1 [Example 17, 1-{1-[4-(3-Dimethylaminopropoxy)benzoyl]-4-piperidinyl}-3,4-dihydrocarbostyril]	–	430
O=C(c1ccc(OCCCNCc2ccccc2)cc1)N1CCC(N2C(=O)CCc3ccccc32)CC1 [Example 18, 1-{1-[4-(3-Benzylaminopropoxy)benzoyl]-4-piperidinyl}-3,4-dihydrocarbostyril]	–	270
CS(=O)(=O)NCCCOc1ccc(C(=O)N2CCC(N3C(=O)CCc4ccccc43)CC2)cc1 [Example 22, 1-{1-[4-(3-Methylsulfonylaminopropoxy)benzoyl]-4-piperidinyl}-3,4-dihydrocarbostyril]	–	340
CNC(=O)NCCCOc1ccc(C(=O)N2CCC(N3C(=O)CCc4ccccc43)CC2)cc1 [Example 23, 1-[1-{4-[3-(3-Methylureido)propoxy]benzoyl}-4-piperidinyl]-3,4-dihydrocarbostyril]	–	240
CC(=O)NCC(=O)NCCCCOc1ccc(C(=O)N2CCC(N3C(=O)CCc4ccccc43)CC2)cc1 [Example 25]	–	240
COC(=O)NCCCCOc1ccc(C(=O)N2CCC(N3C(=O)CCc4ccccc43)CC2)cc1 [Example 27, 1-{1-[4-(4-Methoxycarbonylaminobutoxy)benzoyl]-4-piperidinyl}-3,4-dihydrocarbostyril]	–	270
CS(=O)(=O)NCCCCOc1ccc(C(=O)N2CCC(N3C(=O)CCc4ccccc43)CC2)cc1 [Example 28, 1-{1-[4-(4-Methylsulfonylaminobutoxy)benzoyl]-4-piperidinyl}-3,4-dihydrocarbostyril]	–	160
CNCC(O)CCCOc1ccc(C(=O)N2CCC(N3C(=O)CCc4ccccc43)CC2)cc1 (stereo not drawn) [Example 30, 1-{1-[4-(5-Methylamino-4-hydroxypentyloxy)benzoyl]-4-piperidinyl}-3,4-dihydrocarbostyril]	–	330
O=C(c1ccc(OCCCO)cc1)N1CCC(N2C(=O)CCc3ccccc32)CC1 [Example 32, 1-{1-[4-(3-Hydroxypropoxy)benzoyl]-4-piperidinyl}-3,4-dihydrocarbostyril]	–	460
CC(=O)OCCCOc1ccc(C(=O)N2CCC(N3C(=O)CCc4ccccc43)CC2)cc1 [Example 33, 1-{1-[4-(3-Acetoxypropoxy)benzoyl]-4-piperidinyl}-3,4-dihydrocarbostyril]	–	450
NC(=O)OCCCOc1ccc(C(=O)N2CCC(N3C(=O)CCc4ccccc43)CC2)cc1 [Example 35, 1-{1-[4-(3-Carbamoyloxypropoxy)benzoyl]-4-piperidinyl}-3,4-dihydrocarbostyril]	–	150
O=C(c1ccc(OCCCCO)cc1)N1CCC(N2C(=O)CCc3ccccc32)CC1 [Example 36, 1-{1-[4-(4-Hydroxybutoxy)benzoyl]-4-piperidinyl}-3,4-dihydrocarbostyril]	–	370
CC(=O)OCCCCOc1ccc(C(=O)N2CCC(N3C(=O)CCc4ccccc43)CC2)cc1 [Example 37, 1-{1-[4-(4-Acetoxybutoxy)benzoyl]-4-piperidinyl}-3,4-dihydrocarbostyril]	–	360
